Data: patent publication US4681872A (priority 1985, dated 1987)
In brackets after ≈: the same amount, converted by molar mass. Like-named read-outs stand apart in the source and are kept apart here.

Assays:
[1] = tested on: Strep. agalactiae CMX 633; assay: antimicrobial spectrum, agar dilution MIC; assay type: cell-based; details: 35°-37° C., 20-24 hours
[2] = tested on: Staph. epidermidis CMX 728; assay: antimicrobial spectrum, agar dilution MIC; assay type: cell-based; details: 35°-37° C., 20-24 hours
Bact. SP SFM2975-2 = assay: antimicrobial spectrum, agar dilution MIC
Enterococcus CMX 736F = assay: antimicrobial spectrum, agar dilution MIC
[3] = tested on: Strep. pyogenes M79061-139; assay: antimicrobial spectrum, agar dilution MIC; assay type: cell-based; details: 35°-37° C., 20-24 hours
[4] = tested on: Staph. epidermidis 3519 RARI; assay: microbe, parasite or virus in culture; assay type: cell-based
Enterococcus GYR 1166 = assay: microbe, parasite or virus in culture; assay type: cell-based
E. coli H560 = assay: antimicrobial spectrum, agar dilution MIC
Bact. fragilis SFM2929-1 = assay: antimicrobial spectrum, agar dilution MIC
Staph. aureus ATCC 6538P = assay: antimicrobial spectrum, agar dilution MIC
[5] = tested on: Propionibacterium acnes 132; assay: antimicrobial spectrum, agar dilution MIC
Staph. aureus A5177 = assay: antimicrobial spectrum, agar dilution MIC
[6] = tested on: Strep. pneumoniae 78-008107; assay: antimicrobial spectrum, agar dilution MIC
[7] = tested on: Strep. agalactiae CMX 508; assay: antimicrobial spectrum, agar dilution MIC
[8] = tested on: Peptostrep. anaerobius ATCC 27337; assay: antimicrobial spectrum, agar dilution MIC
[9] = tested on: Staph. saprophyticus ATCC 15305; assay: antimicrobial spectrum, agar dilution MIC; assay type: cell-based; details: 35°-37° C., 20-24 hours
Strep. pyogenes = assay: acute mouse protection test; assay type: in vivo, Swiss albino mice; details: mice, dosed 1 and 5 hours post-infection, observed 7 days; for ED50: Streptococcus pyogenes, 168 h
[10] = tested on: Staph. epidermidis GYR 1151; assay: antimicrobial spectrum, agar dilution MIC; assay type: cell-based; details: 35°-37° C., 20-24 hours
Staph. aureus = assay: acute mouse protection test; assay type: in vivo, Swiss albino mice; details: for ED50: Staphylococcus aureus, 168 h
Strep. faecalis CMX 663F = assay: antimicrobial spectrum, agar dilution MIC
[11] = tested on: Staph. epidermidis CMX 729h; assay: antimicrobial spectrum, agar dilution MIC
Cl. difficile ATCC 9689 = assay: antimicrobial spectrum, agar dilution MIC
[12] = tested on: Veillonella parvula ATCC 10790; assay: antimicrobial spectrum, agar dilution MIC
[13] = tested on: Bact. thetaiotamicron 106; assay: antimicrobial spectrum, agar dilution MIC
E. coli DC-2 = assay: antimicrobial spectrum, agar dilution MIC
Staph. aureus CMX 705 = assay: antimicrobial spectrum, agar dilution MIC; assay type: cell-based; details: 35°-37° C., 20-24 hours
E. coli KNK 437 = assay: antimicrobial spectrum, agar dilution MIC
[14] = tested on: Peptostrep. micros ATCC 33270; assay: antimicrobial spectrum, agar dilution MIC
[15] = tested on: Strep. pyogenes M79061-140; assay: antimicrobial spectrum, agar dilution MIC; assay type: cell-based; details: 35°-37° C., 20-24 hours
Staph. aureus NCTC 10649 = assay: antimicrobial spectrum, agar dilution MIC; assay type: cell-based; details: 35°-37° C., 20-24 hours
Staph. epidermidis 3519 = assay: antimicrobial spectrum, agar dilution MIC
Cl. perfringens 788 = assay: microbe, parasite or virus in culture; assay type: cell-based

SMILES: CCC1OC(=O)C(C)C(OC2CC(C)(OC)CC(C)O2)C(C)C(OC2OC(C)CC(N(C)C)C2O)C(C)(O)CC(C)C(=O)C(C)C2OC(=O)OC12C (centres unmarked) [4"-deoxyerythromycin A 11,12-carbonate]
- MIC ([1]; BHI agar): .015 µg/mL (≈ 0.0202 µM)
- MIC ([2]; BHI agar): .03 µg/mL (≈ 0.0403 µM)
- MIC (Bact. SP SFM2975-2; Bact. SP SFM2975-2, BHI agar, 35°-37° C., 20-24 hours): .8 µg/mL (≈ 1.08 µM)
- MIC (Enterococcus CMX 736F; Enterococcus CMX 736F, BHI agar, 35°-37° C., 20-24 hours): .12 µg/mL (≈ 0.161 µM)
- MIC ([3]; BHI agar): .015 µg/mL (≈ 0.0202 µM)
- MIC ([4]; Staph. epidermidis 3519 RARI, BHI agar, 35°-37° C., 20-24 hours): .1 µg/mL (≈ 0.134 µM)
- MIC (Enterococcus GYR 1166; Enterococcus GYR 1166, BHI agar, 35°-37° C., 20-24 hours): .12 µg/mL (≈ 0.161 µM)
- MIC (E. coli H560; E. coli H560, BHI agar, 35°-37° C., 20-24 hours): 6.2 µg/mL (≈ 8.33 µM)
- MIC (Bact. fragilis SFM2929-1; Bact. fragilis SFM2929-1, BHI agar, 35°-37° C., 20-24 hours): 1.6 µg/mL (≈ 2.15 µM)
- MIC (Staph. aureus ATCC 6538P; Staph. aureus ATCC 6538P, BHI agar, 35°-37° C., 20-24 hours): .1 µg/mL (≈ 0.134 µM)
- MIC ([5]; Propionibacterium acnes 132, BHI agar, 35°-37° C., 20-24 hours): .05 µg/mL (≈ 0.0672 µM)
- MIC (Staph. aureus A5177; Staph. aureus A5177, BHI agar, 35°-37° C., 20-24 hours): .39 µg/mL (≈ 0.524 µM)
- MIC ([6]; Strep. pneumoniae 78-008107, BHI agar, 35°-37° C., 20-24 hours): 32 µg/mL (≈ 43 µM)
- MIC ([7]; Strep. agalactiae CMX 508, BHI agar, 35°-37° C., 20-24 hours): .02 µg/mL (≈ 0.0269 µM)
- MIC ([8]; Peptostrep. anaerobius ATCC 27337, BHI agar, 35°-37° C., 20-24 hours): .05 µg/mL (≈ 0.0672 µM)
- MIC ([9]; BHI agar): .03 µg/mL (≈ 0.0403 µM)
- ED-50 (Strep. pyogenes; oral): 8.9 mg/kg
- ED-50 (Strep. pyogenes; subcutaneous): 4.0 mg/kg
- MIC ([10]; BHI agar): .06 µg/mL (≈ 0.0807 µM)
- ED-50 (Staph. aureus; Staph. aureus, mice, oral, dosed 1 and 5 hours post-infection, observed 7 days): 31.4 mg/kg
- ED-50 (Staph. aureus; Staph. aureus, mice, subcutaneous, dosed 1 and 5 hours post-infection, observed 7 days): 36.3 mg/kg
- MIC (Strep. faecalis CMX 663F; Strep. faecalis CMX 663F, BHI agar, 35°-37° C., 20-24 hours): 2 µg/mL (≈ 2.69 µM)
- MIC ([11]; Staph. epidermidis CMX 729h, BHI agar, 35°-37° C., 20-24 hours): 128 µg/mL (≈ 172 µM)
- MIC (Cl. difficile ATCC 9689; Cl. difficile ATCC 9689, BHI agar, 35°-37° C., 20-24 hours): .4 µg/mL (≈ 0.538 µM)
- MIC ([12]; Veillonella parvula ATCC 10790, BHI agar, 35°-37° C., 20-24 hours): 3.1 µg/mL (≈ 4.17 µM)
- MIC ([13]; Bact. thetaiotamicron 106, BHI agar, 35°-37° C., 20-24 hours): 3.1 µg/mL (≈ 4.17 µM)
- MIC (E. coli DC-2; E. coli DC-2, BHI agar, 35°-37° C., 20-24 hours): 25 µg/mL (≈ 33.6 µM)
- MIC (Staph. aureus CMX 705; BHI agar): .03 µg/mL (≈ 0.0403 µM)
- MIC (E. coli KNK 437; E. coli KNK 437, BHI agar, 35°-37° C., 20-24 hours): 25 µg/mL (≈ 33.6 µM)
- MIC ([14]; Peptostrep. micros ATCC 33270, BHI agar, 35°-37° C., 20-24 hours): .05 µg/mL (≈ 0.0672 µM)
- MIC ([15]; BHI agar): .001 µg/mL (≈ 0.00134 µM)
- MIC (Staph. aureus NCTC 10649; BHI agar): .06 µg/mL (≈ 0.0807 µM)
- MIC (Staph. epidermidis 3519; Staph. epidermidis 3519, BHI agar, 35°-37° C., 20-24 hours): .1 µg/mL (≈ 0.134 µM)
- MIC (Cl. perfringens 788; Cl. perfringens 788, BHI agar, 35°-37° C., 20-24 hours): .4 µg/mL (≈ 0.538 µM)

SMILES: CC[C@H]1OC(=O)[C@H](C)[C@@H](O[C@H]2C[C@@](C)(OC)[C@@H](O)[C@H](C)O2)[C@H](C)[C@@H](O[C@@H]2O[C@H](C)C[C@H](N(C)C)[C@H]2O)[C@](C)(O)C[C@@H](C)C(=O)[C@H](C)[C@@H](O)[C@]1(C)O [Erythromycin A, reference compound]
- MIC ([1]; Streptococcus agalactiae, CMX633, BHI agar, read-out: MIC): 0.015 µg/mL (≈ 0.0204 µM)
- MIC ([2]; Staphylococcus epidermidis, CMX728, BHI agar, read-out: MIC): 0.06 µg/mL (≈ 0.0818 µM)
- MIC (Bact. SP SFM2975-2): 1.6 µg/mL (≈ 2.18 µM)
- MIC (Enterococcus CMX 736F; Enterococcus, CMX736F): 0.1 µg/mL (≈ 0.136 µM)
- MIC ([3]; Streptococcus pyogenes, M79061139, BHI agar, read-out: MIC): 0.015 µg/mL (≈ 0.0204 µM)
- MIC ([4]; Staphylococcus epidermidis, 3519RARI): 0.39 µg/mL (≈ 0.531 µM)
- MIC (Enterococcus GYR 1166; Enterococcus, GYR1166): 1 µg/mL (≈ 1.36 µM)
- MIC (E. coli H560; Escherichia coli, H560): 12.5 µg/mL (≈ 17 µM)
- MIC (Bact. fragilis SFM2929-1; Bacteroides fragilis, SFM29291): 3.1 µg/mL (≈ 4.22 µM)
- MIC (Staph. aureus ATCC 6538P; Staphylococcus aureus, ATCC6538P): 0.39 µg/mL (≈ 0.531 µM)
- MIC ([5]; Cutibacterium acnes, 132): 0.05 µg/mL (≈ 0.0681 µM)
- MIC (Staph. aureus A5177; Staphylococcus aureus, A5177): 1.56 µg/mL (≈ 2.13 µM)
- MIC ([6]; Streptococcus pneumoniae, 78008107): 128 µg/mL (≈ 174 µM)
- MIC ([7]; Streptococcus agalactiae, CMX508): 0.05 µg/mL (≈ 0.0681 µM)
- MIC [8]: 0.05 µg/mL (≈ 0.0681 µM)
- MIC ([9]; Staphylococcus saprophyticus, ATCC15305, BHI agar, read-out: MIC): 0.06 µg/mL (≈ 0.0818 µM)
- ED50 (Strep. pyogenes; oral): 50 mg/kg
- ED50 (Strep. pyogenes; sc, subcutaneous): 3.5 mg/kg
- MIC ([10]; Staphylococcus epidermidis, GYR1151, BHI agar, read-out: MIC): 0.06 µg/mL (≈ 0.0818 µM)
- ED50 (Staph. aureus; Staph. aureus, mice, oral, dosed 1 and 5 hours post-infection, observed 7 days, read-out: ED-50): 141 mg/kg
- ED50 (Staph. aureus; sc): 21.4 mg/kg
- MIC (Strep. faecalis CMX 663F; Enterococcus faecalis, CMX663F): 16 µg/mL (≈ 21.8 µM)
- MIC ([11]; Staphylococcus epidermidis, CMX729H): 128 µg/mL (≈ 174 µM)
- MIC (Cl. difficile ATCC 9689; Clostridioides difficile, ATCC9689): 0.4 µg/mL (≈ 0.545 µM)
- MIC ([12]; Veillonella parvula, ATCC10790): 12.5 µg/mL (≈ 17 µM)
- MIC [13]: 3.1 µg/mL (≈ 4.22 µM)
- MIC (E. coli DC-2; Escherichia coli, DC2): 50 µg/mL (≈ 68.1 µM)
- MIC (Staph. aureus CMX 705; Staphylococcus aureus, CMX705, BHI agar, read-out: MIC): 0.06 µg/mL (≈ 0.0818 µM)
- MIC (E. coli KNK 437; Escherichia coli, KNK437): 100 µg/mL (≈ 136 µM)
- MIC [14]: 0.1 µg/mL (≈ 0.136 µM)
- MIC ([15]; Streptococcus pyogenes, M79061140, BHI agar, read-out: MIC): 0.002 µg/mL (≈ 0.00273 µM)
- MIC (Staph. aureus NCTC 10649; Staphylococcus aureus, NCTC10649, BHI agar, read-out: MIC): 0.12 µg/mL (≈ 0.164 µM)
- MIC (Staph. epidermidis 3519; Staphylococcus epidermidis, 3519): 0.39 µg/mL (≈ 0.531 µM)
- MIC (Cl. perfringens 788; Clostridium perfringens, 788): 1.6 µg/mL (≈ 2.18 µM)
